One substance from patent US20150218638A1, “METHODS FOR ASSESSMENT OF PEPTIDE-SPECIFIC IMMUNITY” (priority 2012, published 2015) can be followed below.

This test relates to heparinized whole blood. As to the kind of experiment: Ex vivo induction of immune-function-related mRNA in heparinized whole blood, real time PCR. The conditions noted are these: 37° C., 4 hours, vs PBS. The format is cell-based.

For leucoagglutinin [PHA-L], the “CCL4 mRNA induction” value is listed as “induced”, the “CTLA4 mRNA induction” value was “induced”, the “CXCL3 mRNA induction” value is reported as “induced” and the “CXCL10 mRNA induction” value is given as “induced”. The “GMCSF mRNA induction” value is listed as “induced”, the “IFNG mRNA induction” value is listed as “induced”, the “IL4 mRNA induction” value is given as “induced” and the “IL10 mRNA induction” value was “induced”. Further, the “TNFSF2 mRNA induction” value is “induced” and the “beta actin (ACTB) mRNA induction (control housekeeping gene)” value is given as “not induced”.
